pIC50: −log10 of the molar value.
Legend:
[1] = Cytotoxicity against green monkey Vero cells incubated for 48 hrs by resazurin dye based assay; assay type: toxicity, cell-based; conditions: African green monkey (Chlorocebus sabaeus)
[2] = Cytotoxicity against human […]-differentiated THP-1 cells incubated for 72 hrs by resazurin dye based assay; assay type: toxicity, cell-based
Leishmania donovani [3] = assay: Antileishmanial activity against Leishmania donovani 9515 (MHOM/IN/95/9151) promastigote incubated for 48 hrs by resazurin dye based plate reader assay; assay type: functional, organism-based
Leishmania donovani [4] = assay: Antileishmanial activity against Leishmania donovani 9515 (MHOM/IN/95/9151) amastigote infected in THP-1 cells assessed as inhibition of parasite growth incubated for 72 hrs by resazurin dye based plate reader assay; assay type: functional, organism-based; conditions: THP-1, 72 h
Leishmania donovani [5] = assay: Leishmanicidal activity against Leishmania donovani 9515 (MHOM/IN/95/9151) amastigote infected in THP-1 cells incubated for 72 hrs by resazurin dye based plate reader assay; assay type: functional, organism-based; conditions: THP-1, 72 h
[6] = Cytotoxicity against MDBK cells incubated for 72 hrs by CCK8 assay; assay type: toxicity, cell-based, Bos taurus; conditions: cattle, MDBK cells
[7] = tested on: Trypanosoma brucei gambiense; assay: Trypanocidal activity against Trypanosoma brucei gambiense IL1922 incubated for 72 hrs by CellTiter-Glo reagent based […] analysis; assay type: functional, organism-based; conditions: IL1922, 72 h
[8] = tested on: Trypanosoma brucei rhodesiense; assay: Trypanocidal activity against Trypanosoma brucei rhodesiense IL1501 incubated for 72 hrs by CellTiter-Glo reagent based […] analysis; assay type: functional, organism-based; conditions: IL1501, 72 h
[9] = tested on: Trypanosoma brucei brucei; assay: Trypanocidal activity against Trypanosoma brucei brucei GUTat3.1 incubated for 72 hrs by CellTiter-Glo reagent based […] analysis; assay type: functional, organism-based; conditions: GUTat3.1, 72 h
Trypanosoma congolense = assay: Trypanocidal activity against Trypanosoma congolense IL3000 incubated for 72 hrs by CellTiter-Glo reagent based […] analysis; assay type: functional, organism-based; conditions: IL3000, 72 h
Trypanosoma evansi = assay: Trypanocidal activity against Trypanosoma evansi Tansui incubated for 72 hrs by CellTiter-Glo reagent based […] analysis; assay type: functional, organism-based
Trypanosoma equiperdum = assay: Trypanocidal activity against Trypanosoma equiperdum IVM-t1 incubated for 72 hrs by CellTiter-Glo reagent based […] analysis; assay type: functional, organism-based; conditions: IVM-t1, 72 h

C#CCn1cc(/C=N\N)c2cc([N+](=O)[O-])ccc21
IC50 at 48 h [1]: 96.8 µM | IC50 at 72 h [2]: 61 µM | pIC50 (Leishmania donovani [3]): < 5.00 | pIC50 (Leishmania donovani [4]): < 5.00 | pIC50 (Leishmania donovani [5]): < 5.00 | CC50 at 72 h [6]: 341 µM | pIC50 [7]: < 3.99 | pIC50 [8]: < 3.99 | pIC50 [9]: < 3.99 | pIC50 (Trypanosoma congolense): < 5.49 | pIC50 (Trypanosoma evansi): < 3.99 | pIC50 (Trypanosoma equiperdum): < 3.99

N=C(N)c1ccc(/N=N/Nc2ccc(C(=N)N)cc2)cc1 [DIMINAZENE DIACETURATE]
pIC50 (Trypanosoma congolense): 6.96 | pIC50 (Trypanosoma equiperdum): 7.96

C#CCn1cc(C=O)c2cc([N+](=O)[O-])ccc21
IC50 at 48 h [1]: > 100 µM | IC50 at 72 h [2]: 77 µM | pIC50 (Leishmania donovani [3]): < 5.00 | pIC50 (Leishmania donovani [4]): < 5.00 | pIC50 (Leishmania donovani [5]): < 5.00 | CC50 at 72 h [6]: > 438 µM | pIC50 [7]: < 3.96 | pIC50 [8]: < 3.96 | pIC50 [9]: < 3.96 | pIC50 (Trypanosoma congolense): < 3.96 | pIC50 (Trypanosoma evansi): < 3.96 | pIC50 (Trypanosoma equiperdum): < 3.96

C#CCn1cc(/C=N\N=C\c2ccncc2)c2cc([N+](=O)[O-])ccc21
IC50 at 48 h [1]: > 100 µM | IC50 at 72 h [2]: 66.4 µM | pIC50 (Leishmania donovani [3]): < 5.00 | pIC50 (Leishmania donovani [4]): < 5.00 | pIC50 (Leishmania donovani [5]): < 5.00 | CC50 at 72 h [6]: 267 µM | pIC50 [7]: < 4.12 | pIC50 [8]: < 4.12 | pIC50 [9]: < 4.12 | pIC50 (Trypanosoma congolense): < 4.12 | pIC50 (Trypanosoma evansi): < 4.12 | pIC50 (Trypanosoma equiperdum): < 4.12

C#CCn1cc(/C=N\N=C/C)c2cc([N+](=O)[O-])ccc21
IC50 at 48 h [1]: 89 µM | IC50 at 72 h [2]: 59.3 µM | pIC50 (Leishmania donovani [3]): < 5.00 | pIC50 (Leishmania donovani [4]): < 5.00 | pIC50 (Leishmania donovani [5]): < 5.00 | CC50 at 72 h [6]: > 373 µM | pIC50 [7]: < 4.03 | pIC50 [8]: < 4.03 | pIC50 [9]: < 4.03 | pIC50 (Trypanosoma congolense): < 4.03 | pIC50 (Trypanosoma evansi): < 4.03 | pIC50 (Trypanosoma equiperdum): < 4.03

C#CCn1cc(/C=N\N=C/C2CC2)c2cc([N+](=O)[O-])ccc21
IC50 at 48 h [1]: 88.4 µM | IC50 at 72 h [2]: 51.8 µM | pIC50 (Leishmania donovani [3]): < 5.00 | pIC50 (Leishmania donovani [4]): < 5.00 | pIC50 (Leishmania donovani [5]): < 5.00 | CC50 at 72 h [6]: > 340 µM | pIC50 [7]: < 4.07 | pIC50 [8]: < 4.07 | pIC50 [9]: < 4.07 | pIC50 (Trypanosoma congolense): < 4.07 | pIC50 (Trypanosoma evansi): < 4.07 | pIC50 (Trypanosoma equiperdum): < 4.07

CC1CS(=O)(=O)CCN1/N=C/c1ccc([N+](=O)[O-])o1 (stereo not given) [NIFURTIMOX]
pIC50 [7]: 5.34

C#CCn1ccc2cc([N+](=O)[O-])ccc21
IC50 at 48 h [1]: > 100 µM | IC50 at 72 h [2]: > 100 µM | pIC50 (Leishmania donovani [3]): < 5.00 | pIC50 (Leishmania donovani [4]): < 5.00 | pIC50 (Leishmania donovani [5]): < 5.00 | CC50 at 72 h [6]: > 500 µM | pIC50 [7]: < 3.90 | pIC50 [8]: < 3.90 | pIC50 [9]: < 3.90 | pIC50 (Trypanosoma congolense): < 3.90 | pIC50 (Trypanosoma evansi): < 3.90 | pIC50 (Trypanosoma equiperdum): < 3.90

O=[N+]([O-])c1ccc2[nH]ccc2c1
IC50 at 48 h [1]: > 100 µM | IC50 at 72 h [2]: > 100 µM | pIC50 (Leishmania donovani [3]): < 5.00 | pIC50 (Leishmania donovani [4]): < 5.00 | pIC50 (Leishmania donovani [5]): < 5.00

N=C(N)c1ccc(OCCCCCOc2ccc(C(=N)N)cc2)cc1 [PENTAMIDINE]
pIC50 [7]: 7.85 | pIC50 (Trypanosoma congolense): 6.48 | pIC50 (Trypanosoma evansi): 9.00 | pIC50 (Trypanosoma equiperdum): 9.00

C#CCn1cc(/C=N\N=C\c2cccn2C)c2cc([N+](=O)[O-])ccc21
pIC50 (Leishmania donovani [3]): < 5.00 | pIC50 (Leishmania donovani [4]): < 5.00 | pIC50 (Leishmania donovani [5]): < 5.00 | CC50 at 72 h [6]: > 299 µM | pIC50 [7]: < 4.13 | pIC50 [8]: < 4.13 | pIC50 [9]: < 4.13 | pIC50 (Trypanosoma congolense): < 4.13 | pIC50 (Trypanosoma evansi): < 4.13 | pIC50 (Trypanosoma equiperdum): < 4.13

Cc1ccc(C(=O)Nc2ccc(S(=O)(=O)O)c3cc(S(=O)(=O)O)cc(S(=O)(=O)O)c23)cc1NC(=O)c1cccc(NC(=O)Nc2cccc(C(=O)Nc3cc(C(=O)Nc4ccc(S(=O)(=O)O)c5cc(S(=O)(=O)O)cc(S(=O)(=O)O)c45)ccc3C)c2)c1 [SURAMIN]
pIC50 (Trypanosoma equiperdum): 7.42

NCCCC(N)(C(=O)O)C(F)F (stereo not given) [EFLORNITHINE]
pIC50 [7]: 4.44 | pIC50 [8]: 4.34 | pIC50 [9]: 4.41 | pIC50 (Trypanosoma congolense): 4.79 | pIC50 (Trypanosoma evansi): 4.24
